The values that follow come from patent publication US8470828B2, “Anellated pyridine compounds” (Hoffmann-La Roche Inc., priority 2010, dated 2013).

For one data set, the target named is T1, human D2 receptor (Homo sapiens, UniProt P14416).
T1 construct: expressed in transfected cells; host or cells: HEK293 EBNA cells, transient transfection; membrane preparation
Description: Radioligand binding to cloned human D2 receptor expressed in HEK-293 EBNA cells ([3H]-spiperone). Particulars: HEK293 EBNA cell membranes, approximately 0.7 nM [3H]-spiperone, 1 h at RT.

Another data set deals with human 5-HT2A receptor (Homo sapiens, UniProt P28223). Description: Radioligand binding to cloned human 5-HT2A receptor expressed in HEK-293 EBNA cells ([3H]-ketanserin).
A further data set deals with human D3 receptor (Homo sapiens, UniProt P35462). Description: Radioligand binding to cloned human D3 receptor expressed in HEK-293 EBNA cells ([3H]-spiperone).
Sequence of human D3 receptor (P35462 whole entry): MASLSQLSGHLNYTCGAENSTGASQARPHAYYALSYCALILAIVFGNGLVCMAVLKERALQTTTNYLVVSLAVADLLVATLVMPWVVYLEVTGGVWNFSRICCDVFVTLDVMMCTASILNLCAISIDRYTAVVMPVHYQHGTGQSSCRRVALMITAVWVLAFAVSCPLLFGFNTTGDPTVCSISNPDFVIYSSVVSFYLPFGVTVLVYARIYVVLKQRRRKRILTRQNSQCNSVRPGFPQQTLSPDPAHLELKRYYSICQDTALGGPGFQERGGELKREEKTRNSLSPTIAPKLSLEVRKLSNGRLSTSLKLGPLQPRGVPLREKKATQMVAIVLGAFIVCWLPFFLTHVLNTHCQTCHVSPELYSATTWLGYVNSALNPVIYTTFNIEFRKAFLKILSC

Sequence of human 5-HT2A receptor (P28223 whole entry): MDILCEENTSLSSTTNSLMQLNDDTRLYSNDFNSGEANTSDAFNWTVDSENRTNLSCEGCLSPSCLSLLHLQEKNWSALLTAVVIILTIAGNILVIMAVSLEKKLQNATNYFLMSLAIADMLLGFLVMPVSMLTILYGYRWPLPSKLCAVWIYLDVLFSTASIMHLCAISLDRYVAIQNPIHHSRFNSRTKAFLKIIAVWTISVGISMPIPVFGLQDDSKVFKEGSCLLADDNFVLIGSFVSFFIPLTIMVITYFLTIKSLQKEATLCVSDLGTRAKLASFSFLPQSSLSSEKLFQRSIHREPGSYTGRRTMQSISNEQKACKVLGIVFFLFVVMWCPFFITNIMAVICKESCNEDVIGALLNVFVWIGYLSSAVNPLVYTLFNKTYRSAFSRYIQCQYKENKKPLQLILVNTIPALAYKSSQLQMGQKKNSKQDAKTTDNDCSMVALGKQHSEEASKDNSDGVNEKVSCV
T1 sequence (P14416 whole entry): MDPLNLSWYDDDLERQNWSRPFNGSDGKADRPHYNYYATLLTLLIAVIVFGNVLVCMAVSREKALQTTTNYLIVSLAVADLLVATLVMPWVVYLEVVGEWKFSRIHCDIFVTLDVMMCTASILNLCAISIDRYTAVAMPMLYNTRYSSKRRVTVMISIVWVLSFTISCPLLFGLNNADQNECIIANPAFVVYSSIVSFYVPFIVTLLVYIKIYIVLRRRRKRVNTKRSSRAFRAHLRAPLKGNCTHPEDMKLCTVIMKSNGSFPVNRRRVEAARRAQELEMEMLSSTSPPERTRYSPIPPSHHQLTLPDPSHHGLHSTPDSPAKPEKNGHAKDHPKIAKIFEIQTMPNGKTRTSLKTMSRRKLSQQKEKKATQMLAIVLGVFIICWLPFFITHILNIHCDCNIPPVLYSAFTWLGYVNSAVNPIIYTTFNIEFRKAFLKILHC

In general, melting point refers to the temperature of the solid-liquid transition. One may read the Ki as the dissociation constant of the complex between target and ligand, obtained from inhibition or displacement. Low values mean higher affinity, high ones lower affinity. For `CS(=O)(=O)CC(=O)N[C@H]1CC[C@H](CCN2CCN(c3nccc4ccoc34)CC2)CC1` [Example 17, trans-N-{4-[2-(4-Furo[2,3-c]pyridin-7-yl-piperazin-1-yl)-ethyl]-cyclohexyl}-2-methanesulfonyl-acetamide], the melting point turned out to be 182 °C. On human D2 receptor, this compound yielded a Ki of 576 nM. At human 5-HT2A receptor, the Ki was found to be 10.9 nM. This compound also displayed a Ki at human D3 receptor of 4.26 nM.
On the same counts, the results for `CCC(=O)N[C@H]1CC[C@H](CCN2CCN(c3nccc4c3OCC4)CC2)CC1` [Example 18, trans-N-(4-{2-[4-(2,3-Dihydro-furo[2,3-c]pyridin-7-yl)-piperazin-1-yl]-ethyl}-cyclohexyl)-propionamide] are 196 °C, 648 nM, 43.3 nM and 3.94 nM.
On the same counts, the results for `O=C(CC1COCCO1)N[C@H]1CC[C@H](CCN2CCN(c3nccc4c3OCC4)CC2)CC1` (stereo partly drawn) [Example 19, trans-N-(4-{2-[4-(2,3-Dihydro-furo[2,3-c]pyridin-7-yl)-piperazin-1-yl]-ethyl}-cyclohexyl)-2-[1,4]dioxan-2-yl-acetamide] are 194.5 °C, 1220 nM, 29.7 nM and 8.9 nM.
On the same counts, the results for `COCC(=O)N[C@H]1CC[C@H](CCN2CCN(c3nccc4c3OCC4)CC2)CC1` [Example 20, trans-N-(4-{2-[4-(2,3-Dihydro-furo[2,3-c]pyridin-7-yl)-piperazin-1-yl]-ethyl}-cyclohexyl)-2-methoxy-acetamide] are 126.5 °C, 1280 nM, 32.9 nM and 12.8 nM.
Compound `CS(=O)(=O)CC(=O)N[C@H]1CC[C@H](CCN2CCN(c3nccc4c3OCC4)CC2)CC1` [Example 21, trans-N-(4-{2-[4-(2,3-Dihydro-furo[2,3-c]pyridin-7-yl)-piperazin-1-yl]-ethyl}-cyclohexyl)-2-methanesulfonyl-acetamide] came in with a melting point of 187 °C. Further, on human D2 receptor, the Ki came out at 680 nM. This compound also showed a Ki at human 5-HT2A receptor of 52.1 nM. Besides, the Ki at human D3 receptor stood at 4.36 nM.
On to `O=C(N[C@H]1CC[C@H](CCN2CCN(c3nccc4c3OCC4)CC2)CC1)c1ccccc1` [Example 22, trans-N-(4-{2-[4-(2,3-Dihydro-furo[2,3-c]pyridin-7-yl)-piperazin-1-yl]-ethyl}-cyclohexyl)-benzamide], for which the melting point was determined as 221 °C. On human D2 receptor, this compound returned an inhibition constant Ki of 247 nM. Also, affinity on human 5-HT2A receptor was put at a Ki of 14.7 nM. For the same compound, the affinity at human D3 receptor corresponds to a Ki of 3.34 nM.
Take `O=C(N[C@H]1CC[C@H](CCN2CCN(c3nccc4c3OCC4)CC2)CC1)C1CCC1` [Example 23, Cyclobutanecarboxylic acid trans-(4-{2-[4-(2,3-dihydro-furo[2,3-c]pyridin-7-yl)-piperazin-1-yl]-ethyl}-cyclohexyl)-amide]: the melting point was 186 °C. The Ki on human D2 receptor was 276 nM. At human 5-HT2A receptor, the Ki stood at 30.3 nM. Affinity on human D3 receptor was put at a Ki of 5.89 nM.
`CC(C)CC(=O)N[C@H]1CC[C@H](CCN2CCN(c3nccc4c3OCC4)CC2)CC1` [Example 24, trans-N-(4-{2-[4-(2,3-Dihydro-furo[2,3-c]pyridin-7-yl)-piperazin-1-yl]-ethyl}-cyclohexyl)-3-methyl-butyramide] registered a melting point of 187 °C. This compound displayed a Ki on human D2 receptor of 350 nM. For the same compound, at human 5-HT2A receptor, the Ki was determined as 44.9 nM. The Ki at human D3 receptor stood at 3.19 nM.
The compound `O=C(CC1CCC1)N[C@H]1CC[C@H](CCN2CCN(c3nccc4c3OCC4)CC2)CC1` [Example 25, trans-2-Cyclobutyl-N-(4-{2-[4-(2,3-dihydro-furo[2,3-c]pyridin-7-yl)-piperazin-1-yl]-ethyl}-cyclohexyl)-acetamide] returned a melting point of 147.5 °C. On human D2 receptor, this compound displayed a Ki of 531 nM. In addition, the Ki at human 5-HT2A receptor came out at 36.9 nM. In addition, affinity at human D3 receptor was put at a Ki of 5.78 nM.
On the same counts, the results for `CS(=O)(=O)N[C@H]1CC[C@H](CCN2CCN(c3nccc4c3OCC4)CC2)CC1` [Example 26, trans-N-(4-{2-[4-(2,3-Dihydro-furo[2,3-c]pyridin-7-yl)-piperazin-1-yl]-ethyl}-cyclohexyl)-methanesulfonamide] are 220 °C, 481 nM, 70.8 nM and 13.9 nM.
As for `CCS(=O)(=O)N[C@H]1CC[C@H](CCN2CCN(c3nccc4c3OCC4)CC2)CC1` [Example 27, Ethanesulfonic acid trans-(4-{2-[4-(2,3-dihydro-furo[2,3-c]pyridin-7-yl)-piperazin-1-yl]-ethyl}-cyclohexyl)-amide], the melting point amounted to 190 °C. The Ki at human D2 receptor was 367 nM. The affinity at human 5-HT2A receptor, expressed as Ki, was 60.5 nM. The same compound gave a Ki at human D3 receptor of 11.3 nM.
On the same counts, the results for `O=C(CO)N[C@H]1CC[C@H](CCN2CCN(c3nccc4c3OCC4)CC2)CC1` [Example 28, trans-N-(4-{2-[4-(2,3-Dihydro-furo[2,3-c]pyridin-7-yl)-piperazin-1-yl]-ethyl}-cyclohexyl)-2-hydroxy-acetamide] are 246 °C, 425 nM, 31.3 nM and 7.76 nM.
On the same counts, the results for `O=C(CC1CC1)N[C@H]1CC[C@H](CCN2CCN(c3nccc4c3OCC4)CC2)CC1` [Example 30, trans-2-Cyclopropyl-N-(4-{2-[4-(2,3-dihydro-furo[2,3-c]pyridin-7-yl)-piperazin-1-yl]-ethyl}-cyclohexyl)-acetamide] are 197.5 °C, 184 nM, 33.3 nM and 3.34 nM.
In the same order, the values of `N#CCC(=O)N[C@H]1CC[C@H](CCN2CCN(c3nccc4c3OCC4)CC2)CC1` [Example 31, trans-2-Cyano-N-(4-{2-[4-(2,3-dihydro-furo[2,3-c]pyridin-7-yl)-piperazin-1-yl]-ethyl}-cyclohexyl)-acetamide] are 215.5 °C, 137 nM, 29.7 nM and 2.19 nM.
Regarding `O=C(C[C@H]1COCCO1)N[C@H]1CC[C@H](CCN2CCN(c3nccc4c3OCC4)CC2)CC1` [Example 32, trans-N-(4-{2-[4-(2,3-Dihydro-furo[2,3-c]pyridin-7-yl)-piperazin-1-yl]-ethyl}-cyclohexyl)-2-(S)[1,4]dioxan-2-yl-acetamide], the melting point is 181 °C. On human D2 receptor, this compound displayed a Ki of 822 nM. For the same compound, the affinity at human 5-HT2A receptor, expressed as Ki, was 18.9 nM. Further, the Ki at human D3 receptor is 10.6 nM.
In the same order, the values of `O=C(CC(F)(F)F)N[C@H]1CC[C@H](CCN2CCN(c3nccc4c3OCC4)CC2)CC1` [Example 33, trans-N-(4-{2-[4-(2,3-Dihydro-furo[2,3-c]pyridin-7-yl)-piperazin-1-yl]-ethyl}-cyclohexyl)-3,3,3-trifluoro-propionamide] are 216.5 °C, 276 nM, 44.2 nM and 4.29 nM.
In the same order, the values of `O=C(N[C@H]1CC[C@H](CCN2CCN(c3nccc4c3OCC4)CC2)CC1)C1CCOC1` (stereo partly drawn) [Example 34, Tetrahydro-furan-3-carboxylic acid trans-(4-{2-[4-(2,3-dihydro-furo[2,3-c]pyridin-7-yl)-piperazin-1-yl]-ethyl}-cyclohexyl)-amide] are 195 °C, 172 nM, 28 nM and 7.43 nM.
In the same order, the values of `O=C(C[C@@H]1COCCO1)N[C@H]1CC[C@H](CCN2CCN(c3nccc4c3OCC4)CC2)CC1` [Example 35, trans-N-(4-{2-[4-(2,3-Dihydro-furo[2,3-c]pyridin-7-yl)-piperazin-1-yl]-ethyl}-cyclohexyl)-2-(R)-[1,4]dioxan-2-yl-acetamide] are 181 °C, 384 nM, 36.1 nM and 8.28 nM.
`O=C(N[C@H]1CC[C@H](CCN2CCN(c3nccc4c3OCC4)CC2)CC1)C1CC1` [Example 36, trans-Cyclopropanecarboxylic acid (4-{2-[4-(2,3-dihydro-furo[2,3-c]pyridin-7-yl)-piperazin-1-yl]-ethyl}-cyclohexyl)-amide] had a melting point of 193 °C. The Ki on human D2 receptor was found to be 102 nM. On human 5-HT2A receptor, this compound returned a Ki of 32.3 nM. The same compound registered a Ki on human D3 receptor of 7.49 nM.
On the same counts, the results for `CC(C)C(=O)N[C@H]1CC[C@H](CCN2CCN(c3nccc4c3OCC4)CC2)CC1` [Example 37, trans-N-(4-{2-[4-(2,3-Dihydro-furo[2,3-c]pyridin-7-yl)-piperazin-1-yl]-ethyl}-cyclohexyl)-isobutyramide] are 203.5 °C, 265 nM, 34.8 nM and 7.25 nM.
Consider `O=C(N[C@H]1CC[C@H](CCN2CCN(c3nccc4c3OCC4)CC2)CC1)c1ccc(N2CCOCC2)cc1` [Example 38, trans-N-(4-{2-[4-(2,3-Dihydro-furo[2,3-c]pyridin-7-yl)-piperazin-1-yl]-ethyl}-cyclohexyl)-4-morpholin-4-yl-benzamide], for which the melting point was found to be 241.5 °C. The Ki at human D2 receptor is 2280 nM. This compound also yielded a Ki at human 5-HT2A receptor of 16.6 nM. Besides, at human D3 receptor, the affinity, expressed as Ki, was 15.5 nM.
In the case of `O=C(N[C@H]1CC[C@H](CCN2CCN(c3nccc4c3OCC4)CC2)CC1)c1ccnc2ccccc12` [Example 39, Quinoline-4-carboxylic acid trans-(4-{2-[4-(2,3-dihydro-furo[2,3-c]pyridin-7-yl)-piperazin-1-yl]-ethyl}-cyclohexyl)-amide], the melting point was found to be 222 °C. Besides, the “D2 Ki” value on human D2 receptor was “inactive”. This compound also came in with a Ki at human 5-HT2A receptor of 21.9 nM. For the same compound, on human D3 receptor, the Ki is 6.22 nM.
